From patent publication US8268827B2, “Pyridazinone derivatives as PARP inhibitors” (Istituto di Ricerche di Biologia Molecolare P. Angeletti …, priority 2007, dated 2012)
Counter-ions that a name gives are not always drawn.

System: BRCA-1 silenced HeLa cells (HeLa shBRCA1-GFP)
Assay: Proliferation assay in BRCA-1 silenced HeLa cells
Assay type: cell-based
Settings: Homo sapiens; BRCA1 silenced HeLa cells, 168 hours; read-out: CC50 in the BRCA1 silenced HeLa cells
Procedure: Proliferation Assay in BRCA-1 Silenced HeLa Cells
Compounds of the present invention were also tested in an anti-proliferative assay in matched pair BRCA1 wt and BRCA1-(shRNA) HeLa cells.
The assay is based on the ability of living cells to convert a redox dye (resazurin) into a fluorescent end product (resofurin). The amount of resofurin produced is directly proportional to the cell number.
HeLa shBRCA1-GFP—These are HeLa cells transduced at an MOI of 100 with a Lentivirus containing a shRNA against BRCA-1 and an expression cassette for GFP. BRCA-1 silencing is more than 80% as assessed by Taqman analysis and the cells stably express GFP.
HeLa THM-GFP—These are HeLa cells transduced at an MOI of 100 with a control vector not expressing any shRNA.
• Seed 300 cell/well in 96 wells viewplate black in 90 ul culture Medium*: • Incubate 4 hours at 37° C., 5% CO2 • Add 10 ul/well of 10× compound (5% DMSO in H2O) • Incubate for 168 hours at 37° C., 5% CO2 • Add 10 ul of Celltiter Blue solution (Promega, G8081) pre-diluted 1:1 in PBS1× • Incubate the mixture for 45′ at 37° C., 5% CO2 • Incubate 15′ at RT in the dark • Read plate at fluorimeter ex: 550 nm; em: 590 nm *Culture Medium: DMEM (GIBCO, 41966-029), 10% FCS (GIBCO, 10106-169), 0.1 mg/ml Penicillin-Streptomycin (GIBCO, 15140-114), 2 mM L-Glutamine (GIBCO, 3042190)

| Compound | CC50 [nM] |
| --- | --- |
| Cc1c(Cc2ccc(F)c(C(=O)N3CC(=O)N(C4CCCC4)C(C)C3)c2)n[nH]c(=O)c1C (centres unmarked) [Example 102, 6-{3-[(4-cyclopentyl-3-methyl-5-oxopiperazin-1-yl)carbonyl]-4-fluorobenzyl}-4,5-dimethyl-3-oxo-2,3-dihydropyridazin-1-ium trifluoroacetate] | < 50 |
| Cc1c(Cc2ccc(F)c(C(=O)N3CCN(c4cncs4)C(=O)C3)c2)n[nH]c(=O)c1C [Example 63, 3-(4-Fluoro-3-{[3-oxo-4-(1,3-thiazol-5-yl)piperazin-1-yl]carbonyl}benzyl)-4,5-dimethyl-6-oxo-1,6-dihydropyridazin-1-ium trifluoroacetate] | < 50 |
| Cc1c(Cc2ccc(F)c(C(=O)N3CCN([C@H]4CCCOC4)C(=O)C3)c2)n[nH]c(=O)c1C [Example 103, 6-[4-fluoro-3-({3-oxo-4-[(3S)-tetrahydro-2H-pyran-3-yl]piperazin-1-yl}carbonyl)benzyl]-4,5-dimethylpyridazin-3(2H)-one] | 50 to 500 |
| CC[C@@H]1CN(C(=O)c2cc(Cc3n[nH]c(=O)c(C)c3C)ccc2F)CC(=O)N1C1CCC1 [Example 180, 6-(3-{[(3R)-4-Cyclobutyl-3-ethyl-5-oxopiperazin-1-yl]carbonyl}-4-fluorobenzyl)-4,5-dimethylpyridazin-3(2H)-one] | < 5000 |
| Cc1c(Cc2ccc(F)c(C(=O)N3CCN(C4CCCOC4)C(=O)C3)c2)n[nH]c(=O)c1C (centres unmarked) [Example 47, 6-(4-Fluoro-3-{[3-oxo-4-(tetrahydro-2H-pyran-3-yl)piperazin-1-yl]carbonyl}benzyl)-4,5-dimethyl-3-oxo-2,3-dihydropyridazin-1-ium trifluoroacetate] | 50 to 500 |
| Cc1c(Cc2ccc(F)c(C(=O)N3CCN(C4CCCCC4)C(=O)C3)c2)n[nH]c(=O)c1C(F)(F)F [Example 25, 3-{3-[(4-Cyclohexyl-3-oxopiperazin-1-yl)carbonyl]-4-fluorobenzyl}-4-methyl-6-oxo-5-(trifluoromethyl)-1,6-dihydropyridazin-1-ium trifluoroacetate] | < 50 |
| Cc1c(Cc2ccc(F)c(C(=O)N3CCN(C4Cc5ccccc5C4)C(=O)C3)c2)n[nH]c(=O)c1C [Example 71, 6-(3-{[4-(2,3-Dihydro-1H-inden-2-yl)-3-oxopiperazin-1-yl]carbonyl}-4-fluorobenzyl)-4,5-dimethyl-3-oxo-2,3-dihydropyridazin-1-ium trifluoroacetate] | 50 to 500 |
| Cc1c(Cc2ccc(F)c(C(=O)N3CC(=O)N(c4ccc(C#N)c(F)c4)[C@H](C)C3)c2)n[nH]c(=O)c1C [Example 191, 4-((2R)-4-{5-[(4,5-Dimethyl-6-oxo-1,6-dihydropyridazin-3-yl)methyl]-2-fluorobenzoyl}-2-methyl-6-oxopiperazin-1-yl)-2-fluorobenzonitrile] | < 50 |
| Cc1c(Cc2ccc(F)c(C(=O)N3CC(=O)N(C4CC(F)(F)C4)C(C)C3)c2)n[nH]c(=O)c1C (centres unmarked) [Example 188, 6-(3-{[4-(3,3-Difluorocyclobutyl)-3-methyl-5-oxopiperazin-1-yl]carbonyl}-4-fluorobenzyl)-4,5-dimethylpyridazin-3(2H)-one] | < 50 |
| CCN1C(=O)CN(C(=O)c2cc(Cc3n[nH]c(=O)c(C(F)(F)F)c3C)ccc2F)C[C@H]1C [Example 156, 6-(3-{[(3R)-4-ethyl-3-methyl-5-oxopiperazin-1-yl]carbonyl}-4-fluorobenzyl)-5-methyl-4-(trifluoromethyl)pyridazin-3(2H)-one] | < 50 |
| Cc1c(Cc2ccc(F)c(C(=O)N3CCN(C4(C)CCCCC4)C(=O)C3)c2)n[nH]c(=O)c1C [Example 110, 6-(4-fluoro-3-{[4-(1-methylcyclohexyl)-3-oxopiperazin-1-yl]carbonyl}benzyl)-4,5-dimethyl-3-oxo-2,3-dihydropyridazin-1-ium trifluoroacetate] | < 5000 |
| Cc1c(Cc2ccc(F)c(C(=O)N3CC(=O)N(c4ccc(Cl)cc4F)[C@H](C)C3)c2)n[nH]c(=O)c1C [Example 196, 6-(3-{[(3R)-4-(4-Chloro-2-fluorophenyl)-3-methyl-5-oxopiperazin-1-yl]carbonyl}-4-fluorobenzyl)-4,5-dimethylpyridazin-3(2H)-one] | < 50 |
| Cc1c(Cc2ccc(F)c(C(=O)N3CCN(c4cc(F)cc(F)c4)C(=O)C3)c2)n[nH]c(=O)c1C [Example 12, 6-(3-{[4-(3,5-Difluorophenyl)-3-oxopiperazin-1-yl]carbonyl}-4-fluorobenzyl)-4,5-dimethyl-3-oxo-2,3-dihydropyridazin-1-ium trifluoroacetate] | < 50 |
| Cc1c(Cc2ccc(F)c(C(=O)N3CC(=O)N(C4CCC(F)(F)CC4)C(C)C3)c2)n[nH]c(=O)c1C (centres unmarked) [Example 126, 6-(3-{[4-(4,4-Difluorocyclohexyl)-3-methyl-5-oxopiperazin-1-yl]carbonyl}-4-fluorobenzyl)-4,5-dimethylpyridazin-3(2H)-one trifluoroacetate] | < 50 |
| Cc1nc(C)c(N2CCN(C(=O)c3cc(Cc4n[nH]c(=O)c(C)c4C)ccc3F)CC2=O)s1 [Example 117, 3-(3-{[4-(2,4-Dimethyl-1,3-thiazol-5-yl)-3-oxopiperazin-1-yl]carbonyl}-4-fluorobenzyl)-4,5-dimethyl-6-oxo-1,6-dihydropyridazin-1-ium trifluoroacetate] | 50 to 500 |
| Cc1c(Cc2ccc(F)c(C(=O)N3CCN(c4cccs4)C(=O)C3)c2)n[nH]c(=O)c1C [Example 44, 3-(4-Fluoro-3-{[3-oxo-4-(2-thienyl)piperazin-1-yl]carbonyl}benzyl)-4,5-dimethyl-6-oxo-1,6-dihydropyridazin-1-ium trifluoroacetate] | < 50 |
| Cc1c(Cc2ccc(F)c(C(=O)N3CCN(c4cccc(Cl)c4)C(=O)C3)c2)n[nH]c(=O)c1C [Example 9, 6-(3-{[4-(3-Chlorophenyl)-3-oxopiperazin-1-yl]carbonyl}-4-fluorobenzyl)-4,5-dimethyl-3-oxo-2,3-dihydropyridazin-1-ium trifluoroacetate] | < 50 |
| Cc1c(Cc2ccc(F)c(C(=O)N3CC(=O)N([C@@H]4CCOC4)[C@H](C)C3)c2)n[nH]c(=O)c1C [Example 158, 6-[4-fluoro-3-({(3R)-3-methyl-5-oxo-4-[(3R)-tetrahydrofuran-3-yl]piperazin-1-yl}carbonyl)benzyl]-4,5-dimethylpyridazin-3(2H)-one] | 50 to 500 |
| Cc1c(Cc2ccc(F)c(C(=O)N3CCN([C@@H]4CCCOC4)C(=O)C3)c2)n[nH]c(=O)c1C [Example 104, 6-[4-fluoro-3-({3-oxo-4-[(3R)-tetrahydro-2H-pyran-3-yl]piperazin-1-yl}carbonyl)benzyl]-4,5-dimethylpyridazin-3(2H)-one] | < 50 |
| Cc1c(Cc2ccc(F)c(C(=O)N3CCN([C@H](C)C(F)(F)F)C(=O)C3)c2)n[nH]c(=O)c1C [Example 200, 6-[4-Fluoro-3-({3-oxo-4-[(1R)-2,2,2-trifluoro-1-methylethyl]piperazin-1-yl}carbonyl)benzyl]-4,5-dimethylpyridazin-3(2H)-one] | < 50 |
| CCc1cc(Cc2ccc(F)c(C(=O)N3CCN([C@H]4CCc5ccccc5C4)C(=O)C3)c2)n[nH]c1=O [Example 159, 4-ethyl-6-[4-fluoro-3-({3-oxo-4-[(2S)-1,2,3,4-tetrahydronaphthalen-2-yl]piperazin-1-yl}carbonyl)benzyl]pyridazin-3(2H)-one] | < 50 |
| Cc1c(Cc2ccc(F)c(C(=O)N3CC(=O)N(c4ccc(Cl)c(F)c4)[C@@H](C)C3)c2)n[nH]c(=O)c1C [Example 208, 6-(3-{[(3S)-4-(4-Chloro-3-fluorophenyl)-3-methyl-5-oxopiperazin-1-yl]carbonyl}-4-fluorobenzyl)-4,5-dimethylpyridazin-3(2H)-one] | < 50 |
| Cc1c(Cc2ccc(F)c(C(=O)N3CC(=O)N(c4cc(F)cc(C#N)c4)[C@H](C)C3)c2)n[nH]c(=O)c1C [Example 202, 3-((2R)-4-{5-[(4,5-Dimethyl-6-oxo-1,6-dihydropyridazin-3-yl)methyl]-2-fluorobenzoyl}-2-methyl-6-oxopiperazin-1-yl)-5-fluorobenzonitrile] | < 50 |
| CCN1CCN(C(=O)c2cc(Cc3n[nH]c(=O)c(C)c3C)ccc2F)CC1=O [Example 17, 6-{3-[(4-Ethyl-3-oxopiperazin-1-yl)carbonyl]-4-fluorobenzyl}-4,5-dimethylpyridazin-3(2H)-one trifluoroacetate] | 50 to 500 |
| Cc1c(Cc2ccc(F)c(C(=O)N3CC(=O)N(c4cc(Cl)ccc4F)[C@H](C)C3)c2)n[nH]c(=O)c1C [Example 205, 6-(3-{[(3R)-4-(5-Chloro-2-fluorophenyl)-3-methyl-5-oxopiperazin-1-yl]carbonyl}-4-fluorobenzyl)-4,5-dimethylpyridazin-3(2H)-one] | < 50 |
| Cc1c(Cc2ccc(F)c(C(=O)N3CCN(C4CCCCC4)C(=O)C3)c2)n[nH]c(=O)c1C [Example 2, 6-{3-[(4-Cyclohexyl-3-oxopiperazin-1-yl)carbonyl]-4-fluorobenzyl}-4,5-dimethyl-3-oxo-2,3-dihydropyridazin-1-ium trifluoroacetate] | < 50 |
